{"source": "paper PMC8201735", "about": "(BMC Pharmacology & Toxicology, 2021)", "key": {"[1]": {"assay": "Fluid balance assessment (intake - urine output)", "assay_type": "in vivo, human", "details": "Placebo + Metformin"}, "subjects with T2DM [2]": {"system": "subjects with T2DM", "details": "RE 500 mg BID and metformin 500 mg BID for 3 days; cited from earlier work"}, "subjects with T2DM [3]": {"system": "subjects with T2DM", "assay": "Oral glucose tolerance test (75 g): weighted mean plasma glucose and insulin", "assay_type": "in vivo, human", "details": "Placebo + Metformin", "experimental": "Oral glucose tolerance testing was performed on Day 1 and Day 13 using a 75 g oral glucose solution. Blood samples for the measurement of insulin and glucose were taken immediately before drug dosing (within 5 min of drug dosing), and at 30 min, 1, 1.5, 2, 3, 4, and 6 h following drug dosing."}, "subjects with T2DM [4]": {"system": "subjects with T2DM", "assay": "Adverse event monitoring, RE co-administered with metformin for 13 days", "assay_type": "in vivo, human", "from_the_text": "The study was comprised of three phases; run-in, randomization, and treatment. […] In treatment phase the patients were considered in two cohorts. […] The adverse events monitoring included recording of any adverse event (AE) and serious adverse event (SAE) reported or observed during the entire study and follow-up period. All the subjects were counseled to inform study staff of any AEs that occurred during the study. Any abnormal laboratory findings (e.g., clinical chemistry, hematology, and urinalysis) or other abnormal assessments (e.g., ECGs, vital signs, physical examination) that were judged by the investigator as clinically significant were recorded as AEs or SAE."}, "subjects with T2DM [5]": {"system": "subjects with T2DM", "assay": "Surveillance for lactic acidosis: fasting plasma lactic acid concentration", "assay_type": "in vivo, human", "experimental": "The samples for acidosis analysis were collected at screening (following an overnight fast and prior to morning dose), once during the run-in phase, at baseline (Day- 1), mornings (prior to first dose and breakfast) of Days 1, 2, 3, and 4 (inpatient) and Days 6, 8, and 10 (outpatient) and Days 13 and 14 (inpatient). Subjects were not allowed to do rigorous exercise or physical labor during the treatment phase of the study and instructed to limit exercise 12 h before sampling.\n(§1) Descriptive statistics were used to summarize baseline demographics, safety data, and pharmacokinetic parameters. Geometric mean and % CVb (between-subject coefficient of variation) were calculated for all pharmacokinetic parameters except tmax. Comparisons of placebo with each active dose of RE were assessed in terms of change from baseline in fasting plasma lactate acid using repeated measures analysis of covariance model. The model included terms for baseline measurement, visit, treatment and visit-by-treatment interaction. The same model was applied to change from baseline in weighted means of day-time, night-time and 0–24 h of blood pressures. Within group treatment comparison was performed using mixed model on log transformed Cmax and AUC (0-last)."}, "subjects with T2DM [6]": {"system": "subjects with T2DM", "assay": "Oral glucose tolerance test (75 g): weighted mean plasma glucose and insulin", "assay_type": "in vivo, human", "details": "Day -1 (baseline); Placebo + Metformin"}, "[7]": {"assay": "Plasma pharmacokinetics of metformin with and without RE", "assay_type": "in vivo, human", "details": "for AUC / Cmax: human, plasma, oral, geometric mean; for AUC: Metformin AUC (0-tau); for Cmax: Metformin Cmax", "experimental": "as §1, with “PK analysis was conducted by […] (Chapel Hill, NC, USA), under the direction of Clinical Pharmacokinetics/Modelling and Simulation, GSK using the non-compartmental analysis Model 200 (for extra vascular administration) of WinNonlin Professional Edition version 4.1 (Pharsight Corporation, Mountain View, CA). […] Descriptive” for “Descriptive”, “0-24” for “0–24”"}, "Body weight": {"assay": "Body weight", "assay_type": "in vivo, human", "details": "Placebo + Metformin", "experimental": "Body weight measurement was performed at screening and during inpatient Days- 1, 2, 4, 8, 13, and 14."}, "[8]": {"assay": "Plasma pharmacokinetics of remogliflozin etabonate and its metabolites during metformin treatment", "assay_type": "in vivo, human", "details": "for AUC / Cmax / Tmax: human, plasma; for AUC: read-out: AUC(0-tau), geometric mean (%CVb); for Cmax: read-out: Cmax, geometric mean (%CVb)", "experimental": "as §1, with “PK analysis was conducted by […] (Chapel Hill, NC, USA), under the direction of Clinical Pharmacokinetics/Modelling and Simulation, GSK using the non-compartmental analysis Model 200 (for extra vascular administration) of WinNonlin Professional Edition version 4.1 (Pharsight Corporation, Mountain View, CA). […] Descriptive” for “Descriptive”, “0-24” for “0–24”"}, "[9]": {"details": "Placebo BID + metformin, N = 17"}, "[10]": {"details": "Day 13, Metformin + Placebo group"}, "[11]": {"details": "Day 13 Metformin + RE 750 mg BID"}, "[12]": {"details": "Day -1 metformin alone, Metformin + Placebo group"}, "[13]": {"details": "Day -1 metformin alone, Metformin + RE 500 mg group"}, "[14]": {"details": "Day 13 Metformin + RE 500 mg BID"}, "[15]": {"details": "Day -1 metformin alone, Metformin + RE 750 mg group"}, "[16]": {"details": "oral, 500 mg, Day 1, after RE 500 mg BID + metformin, N = 16"}, "[17]": {"details": "oral, 500 mg, Day 13, after RE 500 mg BID + metformin, N = 15"}, "[18]": {"details": "oral, 750 mg, Day 1, after RE 750 mg BID + metformin, N = 17"}, "[19]": {"details": "oral, 750 mg, Day 13, after RE 750 mg BID + metformin, N = 16"}}, "note": "Like-named read-outs stand apart in the source and are kept apart here.", "data": [{"smiles": "CN(C)C(=N)N=C(N)N", "note": "[Metformin, metformin, reference compound]", "values": [{"measurement": "Change in fluid balance, Mean (SD)", "setting": "[1]; Day 2", "value": "203.5 (999.83) ml"}, {"measurement": "Change in fluid balance, Mean (SD)", "setting": "[1]; Day 13", "value": "−42.0 (1262.56) ml"}, {"measurement": "Effect of metformin on the pharmacokinetics of RE or its metabolites", "setting": "subjects with T2DM [2]", "value": "no effect"}, {"measurement": "Weighted mean plasma glucose following OGTT, Mean (SD)", "setting": "subjects with T2DM [3]; Day 1 (baseline)", "value": "12.65 (3.306) mmol/L"}, {"measurement": "Weighted mean plasma insulin following OGTT, Mean (SD)", "setting": "subjects with T2DM [3]; Day 13", "value": "162.97(97.374) pmol/L"}, {"measurement": "Weighted mean plasma glucose, change from baseline, Mean (SD)", "setting": "subjects with T2DM [3]", "value": "−0.10 (1.572) mmol/L"}, {"measurement": "Weighted mean plasma insulin, change from baseline, Mean (SD)", "setting": "subjects with T2DM [3]", "value": "−13.88(42.349) pmol/L"}, {"measurement": "Any AE", "setting": "subjects with T2DM [4]; Placebo BID + metformin >=2000 mg/day, 13 days, N = 17", "value": "3 (18%) N(%)"}, {"measurement": "Diarrhoea", "setting": "subjects with T2DM [4]; [9]", "value": "1 (6%) N(%)"}, {"measurement": "Dizziness", "setting": "subjects with T2DM [4]; [9]", "value": "0 N(%)"}, {"measurement": "Dyslipidemia", "setting": "subjects with T2DM [4]; [9]", "value": "0 N(%)"}, {"measurement": "Supraventricular tachycardia", "setting": "subjects with T2DM [4]; [9]", "value": "0 N(%)"}, {"measurement": "Thirst", "setting": "subjects with T2DM [4]; [9]", "value": "1 (6%) N(%)"}, {"measurement": "Vomiting", "setting": "subjects with T2DM [4]; [9]", "value": "0 N(%)"}, {"measurement": "Subjects with hypoglycemic laboratory events", "setting": "subjects with T2DM [4]; placebo + metformin group, mild, resolved without intervention", "value": "one"}, {"measurement": "Fasting plasma lactic acid, maximum on-therapy absolute values, Mean (SD)", "setting": "subjects with T2DM [5]; Placebo BID + metformin", "value": "1.554 (0.5094) mmol/L"}, {"measurement": "Fasting plasma lactic acid, maximum on-therapy change from baseline, Mean (SD)", "setting": "subjects with T2DM [5]; Placebo BID + metformin", "value": "0.460 (0.2289) mmol/L"}, {"measurement": "Fasting plasma lactic acid change from baseline, Mean (SD)", "setting": "subjects with T2DM [5]; Study Day 2, Placebo BID + metformin", "value": "0.16 (0.266) mmol/L"}, {"measurement": "Fasting plasma lactic acid change from baseline, Mean (SD)", "setting": "subjects with T2DM [5]; Study Day 6, Placebo BID + metformin", "value": "0.08 (0.288) mmol/L"}, {"measurement": "Fasting plasma lactic acid change from baseline, Mean (SD)", "setting": "subjects with T2DM [5]; Study Day 13, Placebo BID + metformin", "value": "0.00 (0.304) mmol/L"}, {"measurement": "Subjects with lactic acid greater than the upper limits of normal (ULN) at any time", "setting": "subjects with T2DM [5]; while receiving metformin alone, not sustained, minimally above ULN", "value": "four"}, {"measurement": "Weighted mean plasma insulin following OGTT, Mean (SD)", "setting": "subjects with T2DM [6]", "value": "176.85(104.735) pmol/L"}, {"measurement": "Metformin Cmax, geometric mean", "setting": "[7]; [10]", "value": 2041, "unit": "ng/mL"}, {"measurement": "Metformin tmax, median", "setting": "[7]; [10]", "value": 2.5, "unit": "h"}, {"measurement": "Metformin Cmax, geometric mean", "setting": "[7]; [11]", "value": 1695, "unit": "ng/mL"}, {"measurement": "Metformin tmax, median", "setting": "[7]; [11]", "value": 2.0, "unit": "h"}, {"measurement": "Metformin tmax, median", "setting": "[7]; [12]", "value": 2.0, "unit": "h"}, {"measurement": "Metformin tmax, median", "setting": "[7]; [13]", "value": 3.0, "unit": "h"}, {"measurement": "AUC", "setting": "[7]; [10]", "value": 14000, "unit": "ng·h/mL"}, {"measurement": "AUC", "setting": "[7]; [14]", "value": 14700, "unit": "ng·h/mL"}, {"measurement": "AUC", "setting": "[7]; [11]", "value": 11400, "unit": "ng·h/mL"}, {"measurement": "AUC", "setting": "[7]; [12]", "value": 12300, "unit": "ng·h/mL"}, {"measurement": "AUC", "setting": "[7]; [13]", "value": 13900, "unit": "ng·h/mL"}, {"measurement": "AUC", "setting": "[7]; [15]", "value": 11300, "unit": "ng·h/mL"}, {"measurement": "Cmax", "setting": "[7]; [14]", "value": 2170, "unit": "ng/mL"}, {"measurement": "Cmax", "setting": "[7]; [12]", "value": 1970, "unit": "ng/mL"}, {"measurement": "Cmax", "setting": "[7]; [13]", "value": 2160, "unit": "ng/mL"}, {"measurement": "Cmax", "setting": "[7]; [15]", "value": 1760, "unit": "ng/mL"}, {"measurement": "Change from baseline in body weight, Mean (SD)", "setting": "Body weight; Day 2", "value": "−0.70 (0.679) kg"}, {"measurement": "Change from baseline in body weight, Mean (SD)", "setting": "Body weight; Day 14", "value": "−1.02 (0.845) kg"}]}, {"smiles": "Cc1c(Cc2ccc(OC(C)C)cc2)c(O[C@@H]2O[C@H](CO)[C@@H](O)[C@H](O)[C@H]2O)nn1C(C)C", "note": "[Remogliflozin, remogliflozin]", "values": [{"measurement": "AUC(0-tau) accumulation ratio Day 13 versus Day 1, point estimate (90% CI)", "setting": "[8]; RE 500 mg + Metformin", "value": "1.00 (0.907–1.10)"}, {"measurement": "AUC(0-tau) accumulation ratio Day 13 versus Day 1, point estimate (90% CI)", "setting": "[8]; RE 500 mg + Metformin, listed as remogliflozin", "value": "1.00 (0.91, 1.10)"}, {"measurement": "AUC(0-tau) accumulation ratio Day 13 versus Day 1, point estimate (90% CI)", "setting": "[8]; RE 750 mg + Metformin", "value": "0.82 (0.755–0.899)"}, {"measurement": "AUC(0-tau) accumulation ratio Day 13 versus Day 1, point estimate (90% CI)", "setting": "[8]; RE 750 mg + Metformin, listed as remogliflozin", "value": "0.82 (0.755, 0.899)"}, {"measurement": "AUC", "setting": "[8]; [16]", "value": 4890, "unit": "ng·h/mL"}, {"measurement": "Cmax", "setting": "[8]; [16]", "value": 2000, "unit": "ng/mL"}, {"measurement": "Tmax", "setting": "[8]; oral, 500 mg, Day 1, after RE 500 mg BID + metformin, N = 16, read-out: tmax, median (range)", "value": 0.77, "unit": "h"}, {"measurement": "AUC", "setting": "[8]; [17]", "value": 4930, "unit": "ng·h/mL"}, {"measurement": "Cmax", "setting": "[8]; [17]", "value": 1490, "unit": "ng/mL"}, {"measurement": "Tmax", "setting": "[8]; oral, 500 mg, Day 13, after RE 500 mg BID + metformin, N = 15, read-out: tmax, median (range)", "value": 3, "unit": "h"}, {"measurement": "Tmax", "setting": "[8]; oral, 500 mg, RE 500 mg group, read-out: Time of peak concentrations (range)", "value": "0.5 to 6", "unit": "h"}, {"measurement": "AUC", "setting": "[8]; [18]", "value": 8520, "unit": "ng·h/mL"}, {"measurement": "Cmax", "setting": "[8]; [18]", "value": 4010, "unit": "ng/mL"}, {"measurement": "Tmax", "setting": "[8]; oral, 750 mg, Day 1, after RE 750 mg BID + metformin, N = 17, read-out: tmax, median (range)", "value": 0.75, "unit": "h"}, {"measurement": "AUC", "setting": "[8]; [19]", "value": 7000, "unit": "ng·h/mL"}, {"measurement": "Cmax", "setting": "[8]; [19]", "value": 2510, "unit": "ng/mL"}, {"measurement": "Tmax", "setting": "[8]; oral, 750 mg, Day 13, after RE 750 mg BID + metformin, N = 16, read-out: tmax, median (range)", "value": 1.3, "unit": "h"}, {"measurement": "Tmax", "setting": "[8]; po, after concomitant oral administration of RE with metformin (discussion), read-out: Time of peak concentration (range)", "value": "0.5 to 4", "unit": "h"}]}]}
